Results on three compounds are retold here after patent US4877774A, “Administration of steroid hormones” (The United States of America as represented by the …, priority 1987, dated 1989).

In brackets after ≈: the same amount, converted by molar mass. Several values for one entry are separate records, joined by “and”; a condition that tells them apart may be missing. Equal values may be shown once.

In general, solubility refers to how much of the substance goes into solution per volume. A lower solubility goes with little dissolved substance.

The nature of one data set: physchem. The settings on record: water. How it is done: The dissolution rates of testosterone alone or its release from complexes of interest were measured and compared with published data.
Data set [1] is described as follows: phase-solubility of testosterone-gamma-cyclodextrin system in water, 25° C. Here is the method:
The appropriate proportions in the mixture can be determined by examining the descending curvature of the Bs-type phase solubility of FIG. 1.
The appropriate mixture was determined by examining the descending curvature of the Bs-type phase solubility diagram, as shown in FIG. 1. […] The complex, which precipitated as a microcrystalline powder, was removed by filtration and dried under vacuum at room temperature for 24 hours.

Another data set relates to amylases of human saliva. The settings on record: cited from earlier work.
For data set [2] the following is noted: human trial; cited from earlier work.

Consider `C[C@]12CC[C@H]3[C@@H](CCC4=CC(=O)CC[C@@]43C)[C@@H]1CC[C@@H]2O` [testosterone], for which the solubility was 37 µg/mL (≈ 128 µM) in “physchem”; 130 µM and 37 µg/mL in data set [1] (concentration of testosterone in water (without cyclodextrin), 25° C.); 1210 µM and 350 µg/mL in data set [1] (gamma-cyclodextrin, limit value of testosterone concentration, with gamma-cyclodextrin, 25° C.); 8700 µM and 2500 µg/mL in data set [1] (gamma-cyclodextrin, maximal solubilization of testosterone, with gamma-cyclodextrin, 25° C.).
As to `OC[C@H]1O[C@@H]2O[C@H]3[C@H](O)[C@@H](O)[C@@H](O[C@H]4[C@H](O)[C@@H](O)[C@@H](O[C@H]5[C@H](O)[C@@H](O)[C@@H](O[C@H]6[C@H](O)[C@@H](O)[C@@H](O[C@H]7[C@H](O)[C@@H](O)[C@@H](O[C@H]8[C@H](O)[C@@H](O)[C@@H](O[C@H]9[C@H](O)[C@@H](O)[C@@H](O[C@H]1[C@H](O)[C@H]2O)O[C@@H]9CO)O[C@@H]8CO)O[C@@H]7CO)O[C@@H]6CO)O[C@@H]5CO)O[C@@H]4CO)O[C@@H]3CO` [gamma-cyclodextrin], the concentration in solution in data set [1] (water) (solubility) was 168 mM (≈ 218 mg/mL). Further, in the data set on amylases of human saliva, the “susceptibility to the amylases of human saliva” value was “susceptible”.
On to `OC[C@H]1O[C@@H]2O[C@H]3[C@H](O)[C@@H](O)[C@@H](O[C@H]4[C@H](O)[C@@H](O)[C@@H](O[C@H]5[C@H](O)[C@@H](O)[C@@H](O[C@H]6[C@H](O)[C@@H](O)[C@@H](O[C@H]7[C@H](O)[C@@H](O)[C@@H](O[C@H]8[C@H](O)[C@@H](O)[C@@H](O[C@H]1[C@H](O)[C@H]2O)O[C@@H]8CO)O[C@@H]7CO)O[C@@H]6CO)O[C@@H]5CO)O[C@@H]4CO)O[C@@H]3CO` [beta-cyclodextrin], for which the “administration of testosterone, estradiol, or progesterone” value in data set [2] is reported as “marginal”.
